Literature values, collected in US10888535B2, “Skin disinfectant composition” (priority 2015, dated 2021).

| solubility in water | SMILES |
| --- | --- |
| extremely insoluble in water | CCCCCCCCNC(=N)NC(=N)NCc1ccc(Cl)c(Cl)c1 [Olanexidine, 1-(3,4-dichlorobenzyl)-5-octylbiguanide] |
| sufficient solubility in water | CCCCCCCCN=C(N)NC(N)=NCc1ccc(Cl)c(Cl)c1.O=C(O)[C@H](O)[C@@H](O)[C@H](O)[C@H](O)CO [gluconate of olanexidine] |
